# Numbers after ± are expanded uncertainties.
# Experiments:
# [1] = refractive index (Na D-line) (dimensionless); settings: 101.33 kPa, Liquid, Standard Abbe refractometry
# [2] = 100.8 kPa, Liquid; for viscosity: Capillary tube (Ostwald / Ubbelohde) method
# [3] = xn = mol fraction of the nth substance listed; settings: 100.8 kPa, Liquid; for viscosity: Capillary tube (Ostwald / Ubbelohde) method
# [4] = refractive index (Na D-line) (dimensionless); xn = mol fraction of the nth substance listed; settings: 100.8 kPa, Liquid, Standard Abbe refractometry
smiles,measurement,setting,value
CCO [ethanol],refractive index,[1]; 288.15 K,1.36342 ± 0.00031
same,refractive index,[1]; 298.15 K,1.35924 ± 0.00031
same,refractive index,[1]; 308.15 K,1.35502 ± 0.00031
same,mass density,[2]; 288.15 K,793.74 ± 0.23 kg/m3
same,viscosity,[2]; 288.15 K,1.309 ± 0.011 mPa·s
same,mass density,[2]; 298.15 K,785.17 ± 0.23 kg/m3
same,viscosity,[2]; 298.15 K,1.084 ± 0.009 mPa·s
same,mass density,[2]; 308.15 K,776.49 ± 0.24 kg/m3
same,viscosity,[2]; 308.15 K,0.905 ± 0.008 mPa·s
CC(C)=O [acetone],refractive index,[1]; 288.15 K,1.36152 ± 0.00031
same,refractive index,[1]; 298.15 K,1.35605 ± 0.00031
same,refractive index,[1]; 308.15 K,1.35057 ± 0.00031
same,mass density,[2]; 288.15 K,796.87 ± 0.22 kg/m3
same,viscosity,[2]; 288.15 K,0.334 ± 0.003 mPa·s
same,mass density,[2]; 298.15 K,785.47 ± 0.23 kg/m3
same,viscosity,[2]; 298.15 K,0.302 ± 0.003 mPa·s
same,mass density,[2]; 308.15 K,773.91 ± 0.24 kg/m3
same,viscosity,[2]; 308.15 K,0.274 ± 0.003 mPa·s
"CC(C)CC(C)(C)C [2,2,4-trimethylpentane]",refractive index,[1]; 288.15 K,1.39404 ± 0.00031
same,refractive index,[1]; 298.15 K,1.389 ± 0.00031
same,refractive index,[1]; 308.15 K,1.38395 ± 0.00031
same,mass density,[2]; 288.15 K,695.95 ± 0.31 kg/m3
same,viscosity,[2]; 288.15 K,0.537 ± 0.005 mPa·s
same,mass density,[2]; 298.15 K,687.74 ± 0.31 kg/m3
same,viscosity,[2]; 298.15 K,0.48 ± 0.004 mPa·s
same,mass density,[2]; 308.15 K,679.41 ± 0.32 kg/m3
same,viscosity,[2]; 308.15 K,0.432 ± 0.004 mPa·s
CCO [ethanol] + CC(C)=O,viscosity,"[3]; 288.15 K, x2 = 0",1.309 ± 0.011 mPa·s
same,mass density,"[3]; 288.15 K, x2 = 0",793.74 ± 0.23 kg/m3
same,viscosity,"[3]; 298.15 K, x2 = 0",1.084 ± 0.009 mPa·s
same,mass density,"[3]; 298.15 K, x2 = 0",785.17 ± 0.23 kg/m3
same,viscosity,"[3]; 308.15 K, x2 = 0",0.905 ± 0.008 mPa·s
same,mass density,"[3]; 308.15 K, x2 = 0",776.49 ± 0.24 kg/m3
same,refractive index,"[4]; 288.15 K, x2 = 0",1.36342 ± 0.00031
same,refractive index,"[4]; 298.15 K, x2 = 0",1.35924 ± 0.00031
same,refractive index,"[4]; 308.15 K, x2 = 0",1.35502 ± 0.00031
CC(C)=O [acetone] + CC(C)CC(C)(C)C,viscosity,"[3]; 288.15 K, x1 = 1",0.334 ± 0.003 mPa·s
same,mass density,"[3]; 288.15 K, x1 = 1",796.87 ± 0.22 kg/m3
same,viscosity,"[3]; 298.15 K, x1 = 1",0.302 ± 0.003 mPa·s
same,mass density,"[3]; 298.15 K, x1 = 1",785.47 ± 0.23 kg/m3
same,viscosity,"[3]; 308.15 K, x1 = 1",0.274 ± 0.003 mPa·s
same,mass density,"[3]; 308.15 K, x1 = 1",773.91 ± 0.24 kg/m3
same,refractive index,"[4]; 288.15 K, x1 = 1",1.36152 ± 0.00031
same,refractive index,"[4]; 298.15 K, x1 = 1",1.35605 ± 0.00031
same,refractive index,"[4]; 308.15 K, x1 = 1",1.35057 ± 0.00031
CCO [ethanol] + CC(C)CC(C)(C)C,viscosity,"[3]; 288.15 K, x1 = 1",1.309 ± 0.011 mPa·s
same,mass density,"[3]; 288.15 K, x1 = 1",793.74 ± 0.23 kg/m3
same,viscosity,"[3]; 298.15 K, x1 = 1",1.084 ± 0.009 mPa·s
same,mass density,"[3]; 298.15 K, x1 = 1",785.17 ± 0.23 kg/m3
same,viscosity,"[3]; 308.15 K, x1 = 1",0.905 ± 0.008 mPa·s
same,mass density,"[3]; 308.15 K, x1 = 1",776.49 ± 0.24 kg/m3
same,refractive index,"[4]; 288.15 K, x1 = 1",1.36342 ± 0.00031
same,refractive index,"[4]; 298.15 K, x1 = 1",1.35924 ± 0.00031
same,refractive index,"[4]; 308.15 K, x1 = 1",1.35502 ± 0.00031

# — the NIST ThermoML archive (doi:10.1021/je050010l)
